Reference: US8940742B2, “Heterocyclic compounds and uses thereof” (Infinity Pharmaceuticals, Inc., priority 2012, dated 2015)

Biological target: T1, PI3K α (Homo sapiens, UniProt P42336)
T1 construct: purchased Millipore
Test: PI3-Kinase Promega ADP-Glo Max assay
Assay type: biochemical
Conditions: 20 nM kinase, 3 mM ATP, 500 uM diC8-PtdInsP
Experimental: (§1) Promega ADP-Glo Max assay kit (Cat. No. V7002) was utilized to determine IC50 values for α, β, δ and γ isoforms of human Class I PI3 kinases (Millipore). Samples of kinase (20 nM α or δ, 40 nM β or γ isoform) were incubated with compound for 15 minutes at room temperature in reaction buffer (15 mM HEPES pH 7.4, 20 mM NaCl, 1 mM EGTA, 0.02% Tween 20, 10 mM MgCl2, 0.2 mg/mL bovine-γ-globulins) followed by addition of ATP/diC8-PtdInsP mixture to give final concentrations of 3 mM ATP and 500 uM diC8-PtdInsP. Reactions were incubated at room temperature for 2 hours followed by addition of 25 uL of stop solution. After a 40-minute incubation at room temperature, 50 uL of Promega detection mix was added followed by incubation for 1 hour at room temperature. Plates were then read on Envision plate reader in luminescence mode. Data was converted to % inhibition using the following equation below:
(§2) [formula] where S is the sample luminescence, Pos is a positive control without added PI3K, Neg is the negative control without added compound. Data was then plotted as % inhibition vs compound concentration. Data fit to 4 parameter logistic equation to determine IC50 values: […]
(§3) Certain compounds provided herein were tested in PI3-Kinase Promega Assay using procedures as described above to determine IC50 values for α, β, δ and/or γ isoforms.

T1 sequence (P42336 whole entry): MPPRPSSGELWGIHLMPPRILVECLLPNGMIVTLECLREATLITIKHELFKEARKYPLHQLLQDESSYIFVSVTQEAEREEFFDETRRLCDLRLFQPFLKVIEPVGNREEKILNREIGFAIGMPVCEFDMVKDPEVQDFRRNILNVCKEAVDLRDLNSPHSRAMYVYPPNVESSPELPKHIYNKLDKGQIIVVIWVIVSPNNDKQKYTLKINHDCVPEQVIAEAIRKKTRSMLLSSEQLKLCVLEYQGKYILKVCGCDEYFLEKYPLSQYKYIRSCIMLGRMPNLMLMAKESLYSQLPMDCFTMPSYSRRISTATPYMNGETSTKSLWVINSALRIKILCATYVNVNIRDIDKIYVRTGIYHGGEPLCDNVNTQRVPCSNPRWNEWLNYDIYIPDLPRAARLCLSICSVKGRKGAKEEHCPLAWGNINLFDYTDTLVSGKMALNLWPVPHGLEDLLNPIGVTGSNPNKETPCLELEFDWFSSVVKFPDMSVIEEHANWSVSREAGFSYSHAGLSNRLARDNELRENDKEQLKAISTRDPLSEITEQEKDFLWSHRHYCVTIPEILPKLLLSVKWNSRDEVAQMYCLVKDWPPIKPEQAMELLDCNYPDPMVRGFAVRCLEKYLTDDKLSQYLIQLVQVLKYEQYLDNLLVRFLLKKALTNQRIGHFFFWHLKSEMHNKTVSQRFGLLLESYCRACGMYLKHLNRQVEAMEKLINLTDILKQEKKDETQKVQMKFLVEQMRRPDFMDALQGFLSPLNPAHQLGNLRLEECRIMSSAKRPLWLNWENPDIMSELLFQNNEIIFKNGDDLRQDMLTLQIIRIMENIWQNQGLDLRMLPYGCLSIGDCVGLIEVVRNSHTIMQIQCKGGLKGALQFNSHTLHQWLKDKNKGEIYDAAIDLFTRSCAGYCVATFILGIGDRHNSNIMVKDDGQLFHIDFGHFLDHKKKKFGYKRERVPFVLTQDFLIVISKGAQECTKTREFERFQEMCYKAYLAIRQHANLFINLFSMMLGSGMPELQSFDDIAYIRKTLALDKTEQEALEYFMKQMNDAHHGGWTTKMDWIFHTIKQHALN
T1 sequence (P27986 whole entry partner): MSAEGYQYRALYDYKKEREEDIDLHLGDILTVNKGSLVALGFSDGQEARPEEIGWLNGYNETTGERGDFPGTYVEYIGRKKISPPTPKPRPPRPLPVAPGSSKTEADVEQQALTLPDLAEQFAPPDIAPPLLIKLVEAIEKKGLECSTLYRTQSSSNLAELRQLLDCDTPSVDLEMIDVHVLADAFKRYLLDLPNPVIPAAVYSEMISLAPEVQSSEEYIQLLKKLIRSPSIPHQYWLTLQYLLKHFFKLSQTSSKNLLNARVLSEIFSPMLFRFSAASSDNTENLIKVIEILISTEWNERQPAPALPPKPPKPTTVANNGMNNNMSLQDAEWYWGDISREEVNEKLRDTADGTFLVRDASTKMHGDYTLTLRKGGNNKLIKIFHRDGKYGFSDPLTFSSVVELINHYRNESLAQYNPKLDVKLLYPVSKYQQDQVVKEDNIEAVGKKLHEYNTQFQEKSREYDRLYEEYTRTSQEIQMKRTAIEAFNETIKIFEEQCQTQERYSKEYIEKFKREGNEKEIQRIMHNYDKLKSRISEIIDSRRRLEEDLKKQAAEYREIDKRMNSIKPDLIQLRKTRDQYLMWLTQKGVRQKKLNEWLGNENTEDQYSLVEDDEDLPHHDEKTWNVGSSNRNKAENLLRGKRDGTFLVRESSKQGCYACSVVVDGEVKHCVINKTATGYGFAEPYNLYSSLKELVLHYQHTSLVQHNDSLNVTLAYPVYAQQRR

Row | SMILES | IC50
1 | C[C@H](NC(=O)c1c(N)nn2cccnc12)c1cc2cccc(Cl)c2c(=O)n1CC(O)CO (stereo partly drawn) [Compound 238] | 1000 to 10000 nM
2 | C[C@H](NC(=O)c1c(N)nn2cccnc12)c1cc2cccc(C(F)(F)F)c2c(=O)n1-c1ccccc1 [Compound 71] | > 10000 nM
3 | COc1cc(-c2cccc3cc([C@H](C)NC(=O)c4c(N)nn5ccc(C)nc45)n(-c4ccccc4)c(=O)c23)ccn1 [Compound 186] | 1000 to 10000 nM
4 | C[C@H](NC(=O)c1c(N)nn2cccnc12)c1cc2cccc(-c3cccnc3)c2c(=O)n1-c1ccccc1 [Compound 118] | 1000 to 10000 nM
5 | C[C@H](NC(=O)c1c(N)nn2cccnc12)c1cc2cccc(C=O)c2c(=O)n1-c1ccccc1 [Compound 201] | > 10000 nM

The next lines start with the values.

Row | IC50 | SMILES
6 | > 10000 nM | C[C@H](NC(=O)c1nccnc1N)c1cc2cccc(-c3cc[nH]n3)c2c(=O)n1-c1ccccc1 [Compound 59]
7 | > 10000 nM | C[C@H](NC(=O)c1nccnc1N)c1cc2cccc(-c3cccnc3)c2c(=O)n1-c1ccccc1 [Compound 55]

Biological target: T2, PI3K β (Homo sapiens, UniProt P42338)
T2 construct: purchased Millipore
T2 sequence (P42338 whole entry): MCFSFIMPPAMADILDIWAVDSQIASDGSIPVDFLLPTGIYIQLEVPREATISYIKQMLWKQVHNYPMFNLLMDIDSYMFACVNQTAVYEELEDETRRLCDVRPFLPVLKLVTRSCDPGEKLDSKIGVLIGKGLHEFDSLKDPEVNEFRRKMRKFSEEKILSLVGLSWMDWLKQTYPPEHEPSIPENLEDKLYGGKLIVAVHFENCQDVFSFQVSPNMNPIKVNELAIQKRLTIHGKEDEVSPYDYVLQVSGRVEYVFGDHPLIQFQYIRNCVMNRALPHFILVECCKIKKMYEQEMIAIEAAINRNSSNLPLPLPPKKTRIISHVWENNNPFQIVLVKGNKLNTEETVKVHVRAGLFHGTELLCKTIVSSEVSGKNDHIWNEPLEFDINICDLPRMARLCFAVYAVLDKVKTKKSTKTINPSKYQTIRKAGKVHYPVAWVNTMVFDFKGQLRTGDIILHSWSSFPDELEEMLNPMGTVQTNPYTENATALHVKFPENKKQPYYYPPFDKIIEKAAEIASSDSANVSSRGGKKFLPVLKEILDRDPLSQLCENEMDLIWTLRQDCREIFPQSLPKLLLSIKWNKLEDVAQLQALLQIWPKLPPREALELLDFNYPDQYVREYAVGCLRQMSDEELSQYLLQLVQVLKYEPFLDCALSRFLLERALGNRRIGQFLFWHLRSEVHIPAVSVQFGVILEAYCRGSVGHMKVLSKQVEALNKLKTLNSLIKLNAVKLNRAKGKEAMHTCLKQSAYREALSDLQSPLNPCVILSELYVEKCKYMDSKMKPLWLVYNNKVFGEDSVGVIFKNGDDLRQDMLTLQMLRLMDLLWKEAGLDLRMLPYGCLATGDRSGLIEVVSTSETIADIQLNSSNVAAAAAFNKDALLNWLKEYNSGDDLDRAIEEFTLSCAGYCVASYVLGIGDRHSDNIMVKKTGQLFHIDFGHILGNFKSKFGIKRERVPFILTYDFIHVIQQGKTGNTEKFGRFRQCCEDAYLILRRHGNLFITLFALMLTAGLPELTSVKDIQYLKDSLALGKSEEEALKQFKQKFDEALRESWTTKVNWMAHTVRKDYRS
T2 sequence (P27986 whole entry partner): as the sequence (P27986 whole entry partner) above
Test: PI3-Kinase Promega ADP-Glo Max assay
Assay type: biochemical
Conditions: 40 nM kinase, 3 mM ATP, 500 uM diC8-PtdInsP
Experimental: as §1, §2, §3

Row | SMILES | IC50
8 | C[C@H](NC(=O)c1c(N)nn2cccnc12)c1cc2cccc(Cl)c2c(=O)n1CC(O)CO (stereo partly drawn) [Compound 238] | < 100 nM
9 | C[C@H](NC(=O)c1c(N)nn2cccnc12)c1cc2cccc(C(F)(F)F)c2c(=O)n1-c1ccccc1 [Compound 71] | 1000 to 10000 nM
10 | COc1cc(-c2cccc3cc([C@H](C)NC(=O)c4c(N)nn5ccc(C)nc45)n(-c4ccccc4)c(=O)c23)ccn1 [Compound 186] | > 10000 nM
11 | C[C@H](NC(=O)c1c(N)nn2cccnc12)c1cc2cccc(-c3cccnc3)c2c(=O)n1-c1ccccc1 [Compound 118] | > 10000 nM
12 | C[C@H](NC(=O)c1c(N)nn2cccnc12)c1cc2cccc(C=O)c2c(=O)n1-c1ccccc1 [Compound 201] | 1000 to 10000 nM

Second part, the compound after the results:

Row | IC50 | SMILES
13 | > 10000 nM | C[C@H](NC(=O)c1nccnc1N)c1cc2cccc(-c3cc[nH]n3)c2c(=O)n1-c1ccccc1 [Compound 59]
14 | > 10000 nM | C[C@H](NC(=O)c1nccnc1N)c1cc2cccc(-c3cccnc3)c2c(=O)n1-c1ccccc1 [Compound 55]

Biological target: T3, PI3K δ (Homo sapiens, UniProt O00329)
T3 construct: purchased Millipore
Test: PI3-Kinase Promega ADP-Glo Max assay
Assay type: biochemical
Conditions: 20 nM kinase, 3 mM ATP, 500 uM diC8-PtdInsP
Experimental: as §1, §2, §3

Row | SMILES | IC50
15 | C[C@H](NC(=O)c1c(N)nn2cccnc12)c1cc2cccc(Cl)c2c(=O)n1CC(O)CO (stereo partly drawn) [Compound 238] | 100 to 1000 nM
16 | C[C@H](NC(=O)c1c(N)nn2cccnc12)c1cc2cccc(C(F)(F)F)c2c(=O)n1-c1ccccc1 [Compound 71] | 1000 to 10000 nM
17 | COc1cc(-c2cccc3cc([C@H](C)NC(=O)c4c(N)nn5ccc(C)nc45)n(-c4ccccc4)c(=O)c23)ccn1 [Compound 186] | 1000 to 10000 nM
18 | C[C@H](NC(=O)c1c(N)nn2cccnc12)c1cc2cccc(-c3cccnc3)c2c(=O)n1-c1ccccc1 [Compound 118] | 100 to 1000 nM
19 | C[C@H](NC(=O)c1c(N)nn2cccnc12)c1cc2cccc(C=O)c2c(=O)n1-c1ccccc1 [Compound 201] | 1000 to 10000 nM

The next lines start with the values.

Row | IC50 | SMILES
20 | 100 to 1000 nM | C[C@H](NC(=O)c1nccnc1N)c1cc2cccc(-c3cc[nH]n3)c2c(=O)n1-c1ccccc1 [Compound 59]
21 | < 100 nM | C[C@H](NC(=O)c1nccnc1N)c1cc2cccc(-c3cccnc3)c2c(=O)n1-c1ccccc1 [Compound 55]

Biological target: T4, PI3K γ (Homo sapiens, UniProt P48736)
T4 construct: purchased Millipore
T4 sequence (P48736 whole entry): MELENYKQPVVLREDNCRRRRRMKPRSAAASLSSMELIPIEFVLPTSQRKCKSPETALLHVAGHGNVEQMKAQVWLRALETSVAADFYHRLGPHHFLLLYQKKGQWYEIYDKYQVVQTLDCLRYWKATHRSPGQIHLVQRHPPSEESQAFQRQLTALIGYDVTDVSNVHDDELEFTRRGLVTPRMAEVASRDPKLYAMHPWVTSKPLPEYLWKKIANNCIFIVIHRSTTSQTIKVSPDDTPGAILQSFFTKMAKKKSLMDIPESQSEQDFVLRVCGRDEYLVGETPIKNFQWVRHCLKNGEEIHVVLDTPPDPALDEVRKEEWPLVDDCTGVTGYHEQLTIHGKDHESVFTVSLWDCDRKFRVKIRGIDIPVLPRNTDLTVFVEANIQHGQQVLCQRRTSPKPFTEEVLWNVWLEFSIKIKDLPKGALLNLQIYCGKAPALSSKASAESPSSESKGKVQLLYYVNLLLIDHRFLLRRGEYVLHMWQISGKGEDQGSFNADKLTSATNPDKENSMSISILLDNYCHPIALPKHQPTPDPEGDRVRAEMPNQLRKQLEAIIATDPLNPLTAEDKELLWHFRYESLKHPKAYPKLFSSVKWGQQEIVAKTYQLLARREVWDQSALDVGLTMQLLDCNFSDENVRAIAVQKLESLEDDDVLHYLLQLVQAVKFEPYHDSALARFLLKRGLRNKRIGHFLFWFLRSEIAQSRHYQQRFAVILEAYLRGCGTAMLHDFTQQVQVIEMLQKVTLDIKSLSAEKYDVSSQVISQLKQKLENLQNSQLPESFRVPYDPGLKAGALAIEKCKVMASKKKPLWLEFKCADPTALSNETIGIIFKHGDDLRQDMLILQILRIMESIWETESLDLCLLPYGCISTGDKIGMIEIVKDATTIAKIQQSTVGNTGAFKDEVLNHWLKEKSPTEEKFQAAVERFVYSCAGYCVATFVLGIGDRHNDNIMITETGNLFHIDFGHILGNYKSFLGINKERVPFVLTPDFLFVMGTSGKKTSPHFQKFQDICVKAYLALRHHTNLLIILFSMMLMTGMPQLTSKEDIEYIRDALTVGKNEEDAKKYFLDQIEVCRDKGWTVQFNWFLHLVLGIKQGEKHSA
Test: PI3-Kinase Promega ADP-Glo Max assay
Assay type: biochemical
Conditions: 40 nM kinase, 3 mM ATP, 500 uM diC8-PtdInsP
Experimental: Promega ADP-Glo Max assay kit (Cat. No. V7002) was utilized to determine IC50 values for α, β, δ and γ isoforms of human Class I PI3 kinases (Millipore). […] Reactions were incubated at room temperature for 2 hours followed by addition of 25 uL of stop solution. After a 40-minute incubation at room temperature, 50 uL of Promega detection mix was added followed by incubation for 1 hour at room temperature. Plates were then read on Envision plate reader in luminescence mode. Data was converted to % inhibition using the following equation below:
[formula] where S is the sample luminescence, Pos is a positive control without added PI3K, Neg is the negative control without added compound. Data was then plotted as % inhibition vs compound concentration.
as §3

Row | SMILES | IC50
22 | C[C@H](NC(=O)c1c(N)nn2cccnc12)c1cc2cccc(Cl)c2c(=O)n1CC(O)CO (stereo partly drawn) [Compound 238] | 100 to 1000 nM
23 | C[C@H](NC(=O)c1c(N)nn2cccnc12)c1cc2cccc(C(F)(F)F)c2c(=O)n1-c1ccccc1 [Compound 71] | 100 to 1000 nM
24 | COc1cc(-c2cccc3cc([C@H](C)NC(=O)c4c(N)nn5ccc(C)nc45)n(-c4ccccc4)c(=O)c23)ccn1 [Compound 186] | 100 to 1000 nM
25 | C[C@H](NC(=O)c1c(N)nn2cccnc12)c1cc2cccc(-c3cccnc3)c2c(=O)n1-c1ccccc1 [Compound 118] | 100 to 1000 nM
26 | C[C@H](NC(=O)c1c(N)nn2cccnc12)c1cc2cccc(C=O)c2c(=O)n1-c1ccccc1 [Compound 201] | 1000 to 10000 nM

Next, values leading:

Row | IC50 | SMILES
27 | 1000 to 10000 nM | C[C@H](NC(=O)c1nccnc1N)c1cc2cccc(-c3cc[nH]n3)c2c(=O)n1-c1ccccc1 [Compound 59]
28 | 1000 to 10000 nM | C[C@H](NC(=O)c1nccnc1N)c1cc2cccc(-c3cccnc3)c2c(=O)n1-c1ccccc1 [Compound 55]

Biological target: T5, Raw264.7 p110 γ (Mus musculus, UniProt Q9JHG7)
T5 construct: reduction of phospho-AKT in stimulated RAW 264.7 cells; endogenous in cells; host or cells: RAW264.7 macrophages
T5 sequence (Q9JHG7 whole entry): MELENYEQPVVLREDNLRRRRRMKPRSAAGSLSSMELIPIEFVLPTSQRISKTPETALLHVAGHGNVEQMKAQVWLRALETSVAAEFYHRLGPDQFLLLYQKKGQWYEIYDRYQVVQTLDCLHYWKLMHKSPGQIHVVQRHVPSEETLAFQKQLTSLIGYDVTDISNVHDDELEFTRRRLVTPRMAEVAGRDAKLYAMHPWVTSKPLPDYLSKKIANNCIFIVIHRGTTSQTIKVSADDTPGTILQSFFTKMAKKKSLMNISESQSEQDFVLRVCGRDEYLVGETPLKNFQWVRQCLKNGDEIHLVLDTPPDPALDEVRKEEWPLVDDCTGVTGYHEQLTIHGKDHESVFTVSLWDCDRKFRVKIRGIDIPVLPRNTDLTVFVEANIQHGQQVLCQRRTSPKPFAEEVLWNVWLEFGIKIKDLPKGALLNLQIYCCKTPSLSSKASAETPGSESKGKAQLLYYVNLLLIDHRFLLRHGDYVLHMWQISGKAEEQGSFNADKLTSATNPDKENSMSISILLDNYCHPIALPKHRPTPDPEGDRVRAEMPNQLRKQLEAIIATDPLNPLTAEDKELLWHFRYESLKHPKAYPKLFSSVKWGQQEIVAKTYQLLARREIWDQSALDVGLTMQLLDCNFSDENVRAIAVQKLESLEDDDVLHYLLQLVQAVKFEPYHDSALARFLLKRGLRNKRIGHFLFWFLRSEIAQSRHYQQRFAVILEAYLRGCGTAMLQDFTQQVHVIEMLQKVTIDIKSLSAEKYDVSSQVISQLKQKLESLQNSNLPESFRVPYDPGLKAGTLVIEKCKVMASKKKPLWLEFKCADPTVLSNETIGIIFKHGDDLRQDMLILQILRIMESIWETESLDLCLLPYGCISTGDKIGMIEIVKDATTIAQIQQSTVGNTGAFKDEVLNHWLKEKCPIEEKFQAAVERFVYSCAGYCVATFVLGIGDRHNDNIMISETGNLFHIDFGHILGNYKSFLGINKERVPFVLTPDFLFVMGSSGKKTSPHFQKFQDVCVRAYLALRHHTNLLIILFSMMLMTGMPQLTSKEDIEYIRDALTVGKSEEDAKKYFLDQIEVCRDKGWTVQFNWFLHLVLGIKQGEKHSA
Test: Raw264.7 p110 γ cellular assay (phospho-AKT)
Assay type: cell-based
Conditions: serum-starved RAW264.7 cells stimulated with C5a
Text: (b) PI3K-γ Selective Assay
Briefly, serum-starved PAW264.7 cells are stimulated with a known GPCR agonist C5a. […] Cells can be treated with test compounds prior to, simultaneously with, or subsequent to the stimulation by C5a. RAW 264.7 cells respond to the complement component fragment C5a through activation of the C5a receptor, and the C5a receptor activates macrophages and induces cell migration.

Row | SMILES | IC50
29 | C[C@H](NC(=O)c1c(N)nn2cccnc12)c1cc2cccc(Cl)c2c(=O)n1CC(O)CO (stereo partly drawn) [Compound 238] | < 100 nM
30 | C[C@H](NC(=O)c1c(N)nn2cccnc12)c1cc2cccc(C(F)(F)F)c2c(=O)n1-c1ccccc1 [Compound 71] | < 100 nM
31 | COc1cc(-c2cccc3cc([C@H](C)NC(=O)c4c(N)nn5ccc(C)nc45)n(-c4ccccc4)c(=O)c23)ccn1 [Compound 186] | < 100 nM
32 | C[C@H](NC(=O)c1c(N)nn2cccnc12)c1cc2cccc(-c3cccnc3)c2c(=O)n1-c1ccccc1 [Compound 118] | < 100 nM
33 | C[C@H](NC(=O)c1c(N)nn2cccnc12)c1cc2cccc(C=O)c2c(=O)n1-c1ccccc1 [Compound 201] | < 100 nM

Further lines, results first:

Row | IC50 | SMILES
34 | 1000 to 10000 nM | C[C@H](NC(=O)c1nccnc1N)c1cc2cccc(-c3cc[nH]n3)c2c(=O)n1-c1ccccc1 [Compound 59]
35 | 1000 to 10000 nM | C[C@H](NC(=O)c1nccnc1N)c1cc2cccc(-c3cccnc3)c2c(=O)n1-c1ccccc1 [Compound 55]

Biological target: RAJI p110 δ (Homo sapiens, UniProt O00329)
Test: RAJI p110 δ cellular assay (phospho-AKT);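 further: potency based on lowered phosphorylated AKT in RAJI cells, as a readout of PI3K-δ dependent B-cell receptor signaling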
Conditions: not given

Row | SMILES | IC50
36 | C[C@H](NC(=O)c1c(N)nn2cccnc12)c1cc2cccc(Cl)c2c(=O)n1CC(O)CO (stereo partly drawn) [Compound 238] | < 100 nM
37 | C[C@H](NC(=O)c1c(N)nn2cccnc12)c1cc2cccc(C(F)(F)F)c2c(=O)n1-c1ccccc1 [Compound 71] | < 100 nM
38 | COc1cc(-c2cccc3cc([C@H](C)NC(=O)c4c(N)nn5ccc(C)nc45)n(-c4ccccc4)c(=O)c23)ccn1 [Compound 186] | < 100 nM
39 | C[C@H](NC(=O)c1c(N)nn2cccnc12)c1cc2cccc(-c3cccnc3)c2c(=O)n1-c1ccccc1 [Compound 118] | < 100 nM
40 | C[C@H](NC(=O)c1c(N)nn2cccnc12)c1cc2cccc(C=O)c2c(=O)n1-c1ccccc1 [Compound 201] | 100 to 1000 nM

Next, values leading:

Row | IC50 | SMILES
41 | < 100 nM | C[C@H](NC(=O)c1nccnc1N)c1cc2cccc(-c3cc[nH]n3)c2c(=O)n1-c1ccccc1 [Compound 59]
42 | < 100 nM | C[C@H](NC(=O)c1nccnc1N)c1cc2cccc(-c3cccnc3)c2c(=O)n1-c1ccccc1 [Compound 55]
